# Active and inactive are the calls of the source.
# Assays:
# [1] = target: DNA damage-inducible transcript 3 protein (Mus musculus, UniProt P35639); type: functional, Cricetulus griseus
# [2] = target: T1, Runt-related transcription factor 1/Core-binding factor subunit beta (Homo sapiens, UniProt Q01196+Q13951); assay: disruptors of Runt domain/CBFb-SMMHC interaction – biochemical, FRET, Cerulean-Runt, Venus-CBFb-SMMHC, uHTS, […] (AID 1434); type: protein assay
# [3] = target: Induced myeloid leukemia cell differentiation protein Mcl-1 (Homo sapiens, UniProt Q07820); type: functional
# [4] = target: T1, Runt-related transcription factor 1/Core-binding factor subunit beta; assay: Runt domain/CBFb-SMMHC interaction disruptors – biochemical, TR-FRET (AID 1438); type: protein assay
# [5] = target: Coagulation factor XII (Homo sapiens, UniProt P00748); type: functional;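 note: activated factor XIIa alpha cleaving a fluorogenic AMC peptide substrate; inhibitor potency from loss of enzyme activity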
# [6] = cells; type: functional
# [7] = THP-1 cell cytotoxicity, dose response, cytotoxicity control for non-replicating M. tuberculosis project (AID 489025); type: functional
# [8] = Vero E6 cell cytotoxicity, dose response, cytotoxicity control for non-replicating M. tuberculosis project, secondary assay (AID 492998); type: functional, VeroE6; settings: Vero C1008
# [9] = target: T2, DNA repair protein RAD52 homolog (Homo sapiens, UniProt P43351); type: functional, biochemical
# T2 sequence (P43351 whole entry): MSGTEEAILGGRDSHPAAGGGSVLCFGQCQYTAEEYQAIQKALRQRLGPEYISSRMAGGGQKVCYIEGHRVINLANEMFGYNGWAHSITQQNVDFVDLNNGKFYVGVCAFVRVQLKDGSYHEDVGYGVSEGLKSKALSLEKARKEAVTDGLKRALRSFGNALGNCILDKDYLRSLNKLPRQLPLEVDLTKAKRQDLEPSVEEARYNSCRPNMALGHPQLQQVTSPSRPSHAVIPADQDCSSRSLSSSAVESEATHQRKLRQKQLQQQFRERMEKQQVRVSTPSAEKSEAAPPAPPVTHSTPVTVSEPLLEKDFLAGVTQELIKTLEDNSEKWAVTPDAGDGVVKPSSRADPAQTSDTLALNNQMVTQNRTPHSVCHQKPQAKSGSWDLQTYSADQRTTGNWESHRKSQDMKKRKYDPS
# [10] = HepG2 cell cytotoxicity, dose response, cytotoxicity control for non-replicating M. tuberculosis project (AID 489018); type: functional; settings: Mycobacterium tuberculosis
# [11] = target: T3, Heat shock factor protein 1 (Mus musculus, UniProt P38532); assay: decrease of HSF1-responsive luciferase luminescence – cell-based, NIH3T3, dose retest, confirmation (AID 2382); type: functional;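 note: NIH3T3 fibroblasts with HSF1-driven luciferase reporter stressed by proteasome inhibitor MG132; luminescence from HSF1-driven luciferase expression after 8 hours of MG132 stress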
# T3 sequence (P38532 whole entry): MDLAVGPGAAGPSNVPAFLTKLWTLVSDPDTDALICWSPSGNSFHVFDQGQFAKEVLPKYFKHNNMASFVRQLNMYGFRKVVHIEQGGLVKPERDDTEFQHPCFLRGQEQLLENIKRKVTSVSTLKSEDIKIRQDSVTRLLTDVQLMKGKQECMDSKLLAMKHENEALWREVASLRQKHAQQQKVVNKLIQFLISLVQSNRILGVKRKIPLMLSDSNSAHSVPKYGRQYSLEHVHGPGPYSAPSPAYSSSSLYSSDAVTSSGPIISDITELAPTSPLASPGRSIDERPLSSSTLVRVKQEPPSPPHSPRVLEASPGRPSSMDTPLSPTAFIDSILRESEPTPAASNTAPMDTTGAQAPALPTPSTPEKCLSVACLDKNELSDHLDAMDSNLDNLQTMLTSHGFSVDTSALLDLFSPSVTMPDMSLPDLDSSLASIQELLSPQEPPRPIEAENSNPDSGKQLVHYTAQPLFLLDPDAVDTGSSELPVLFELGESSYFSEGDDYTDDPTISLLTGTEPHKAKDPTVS
# [12] = Luminescence Cell-Based Dose Retest to Confirm Activators of 5'UTR Stem-Loop Driven Alpha-Synuclein mRNA Translation in H4 Neuroglioblastoma Cells. [Related pubchem assays (depositor defined):AID1813, AID1829]; type: functional
# [13] = Luminescence Cell-Based Dose Confirmation HTS to Identify Inhibitors of 5'UTR Stem-Loop Driven Alpha-Synuclein mRNA Translation in H4 Neuroglioblastoma Cells. [Related pubchem assays: 1827 (Project Summary), 1813 (Primary HTS)]; type: functional
# [14] = alpha-synuclein stem-loop luciferase translation blockers – H4 neuroglioma cells, luminescence, confirmation (AID 1988); type: functional, cell-based
# [15] = luciferase reporter signal suppression in cells – H4 neuroglioma cells, luminescence, dose response (AID 1990); type: functional, cell-based
# [16] = Luminescence Cell-Based Dose HTS Response to Identify Inhibitors of 5'UTR Stem-Loop Driven Prion Protein mRNA Translation in H4-C Neuroglioblastoma Cells. [Related pubchem assays (depositor defined):AID1814, AID1827]; type: functional
# [17] = Luminescence Cell-Based Dose Response HTS to Identify Inhibitors of Luciferase Translation or Activity in H4-C Neuroglioblastoma Cells. [Related pubchem assays: 1813 (Primary HTS), 1827 (Project Summary)]; type: functional
# [18] = Luminescence Cell-Based Dose Response HTS to Identify Activators of Luciferase Translation or Activity in H4-C Neuroglioblastoma Cells. [Related pubchem assays: 1829 (Project Summary), 1814 (Primary HTS)]; type: functional
# [19] = Luminescence Cell-Based Dose Response HTS to Identify Activators of 5'UTR Stem-Loop Driven Prion Protein mRNA Translation in H4-C Neuroglioblastoma Cells. [Related pubchem assays: 1829 (Project Summary), 1814 (Primary HTS)]; type: functional
# [20] = Luminescence Cell-Based Dose Response HTS to Identify Inhibitors of 5'UTR Stem-Loop Driven Prion Protein mRNA Translation in H4 Neuroglioblastoma Cells. [Related pubchem assays: 1827 (Project Summary), 1813 (Primary HTS)]; type: functional
# [21] = target: T4, Peroxisome proliferator-activated receptor gamma (Homo sapiens, UniProt P37231); assay: competitive ligand displacement at PPARg – biochemical, TR-FRET, LanthaScreen, PPARg partial agonist project, dose response (AID 504446)
# T4 sequence (P37231 whole entry): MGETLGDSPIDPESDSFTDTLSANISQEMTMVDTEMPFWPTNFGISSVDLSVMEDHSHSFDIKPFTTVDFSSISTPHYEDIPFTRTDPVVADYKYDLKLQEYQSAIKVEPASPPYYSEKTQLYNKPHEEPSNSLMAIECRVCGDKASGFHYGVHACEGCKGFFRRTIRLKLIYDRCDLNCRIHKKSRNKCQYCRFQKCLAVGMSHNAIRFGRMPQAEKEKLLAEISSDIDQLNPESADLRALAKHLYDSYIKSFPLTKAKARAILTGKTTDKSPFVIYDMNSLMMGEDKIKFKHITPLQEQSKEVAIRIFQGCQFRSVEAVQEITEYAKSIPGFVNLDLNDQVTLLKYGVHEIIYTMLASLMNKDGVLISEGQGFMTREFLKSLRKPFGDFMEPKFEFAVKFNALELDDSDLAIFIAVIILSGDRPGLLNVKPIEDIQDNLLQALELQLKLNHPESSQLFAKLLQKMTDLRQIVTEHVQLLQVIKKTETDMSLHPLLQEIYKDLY
# [22] = target: T4, Peroxisome proliferator-activated receptor gamma; assay: competitive ligand displacement at PPARg – biochemical, fluorescence polarization, PolarScreen, PPARg partial agonist project, dose response (AID 504453)
# [23] = target: T4, Peroxisome proliferator-activated receptor gamma; assay: PPARg transcriptional activation, reporter cells – cell-based, luminescence, assay provider, dose response (AID 504447); type: functional
# [24] = target: Voltage-dependent T-type calcium channel subunit alpha-1H (Homo sapiens, UniProt O95180); assay: human CACNA1H calcium influx blockade – cell-based, synthetic library set 2, HEK293 HH8, Fluo-4, SAR follow-up (AID 493023); type: functional
# [25] = target: Heat shock protein HSP 90-alpha (Homo sapiens, UniProt P07900); type: functional, organism-based
# [26] = target: T5, Mucolipin-3 (Homo sapiens, UniProt Q8TDD5); assay: Dose response cell-based high-throughput screening assay for agonists of the transient receptor potential channel ML3 (TRPML3). [Related pubchem assays: 1526, 1424, 1448 ]; type: functional
# T5 sequence (Q8TDD5 whole entry): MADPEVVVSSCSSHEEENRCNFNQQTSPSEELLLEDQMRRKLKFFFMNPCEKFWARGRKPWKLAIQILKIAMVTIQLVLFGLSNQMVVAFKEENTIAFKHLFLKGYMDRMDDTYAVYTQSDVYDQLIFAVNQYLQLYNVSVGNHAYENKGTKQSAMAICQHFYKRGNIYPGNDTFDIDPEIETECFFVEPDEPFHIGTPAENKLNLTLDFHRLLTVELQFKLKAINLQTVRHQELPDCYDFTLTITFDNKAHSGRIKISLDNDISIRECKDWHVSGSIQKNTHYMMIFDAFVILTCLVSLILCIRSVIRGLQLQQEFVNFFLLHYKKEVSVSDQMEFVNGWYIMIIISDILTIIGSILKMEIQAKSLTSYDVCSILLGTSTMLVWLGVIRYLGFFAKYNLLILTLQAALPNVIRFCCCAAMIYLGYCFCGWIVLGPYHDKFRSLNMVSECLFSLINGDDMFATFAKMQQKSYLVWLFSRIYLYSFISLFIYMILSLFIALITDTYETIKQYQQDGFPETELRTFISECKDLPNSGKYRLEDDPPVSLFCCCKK
# [27] = target: Paired box protein Pax-8 (Homo sapiens, UniProt Q06710); assay: PAX8 transcriptional activity inhibition in RMG-I – RMG-I cells, luciferase, cherry-pick, dose response (AID 687027); type: functional, cell-based;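 note: luciferase reporter driven by Pax8 target thyroperoxidase promoter measured by SteadyGlo luminescence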
# [28] = target: Ion channel NompC (Danio rerio, UniProt Q7T1G6); assay: Fluorescence counterscreen assay for TRPML3 agonists: dose response cell-based high-throughput screening assay to identify agonists of the transient receptor potential channel N1 (TRPN1). [Related pubchem assays: 1526, 1424, 1448 ]; type: functional
# [29] = Fluorescence-based cell-based high throughput dose response assay for inhibitors of the interaction of nucleotide-binding oligomerization domain containing 2 (NOD2) and the receptor-interacting serine-threonine kinase 2 (RIPK2).; type: functional; settings: Homo sapiens
# [30] = target: Type-1 angiotensin II receptor (Homo sapiens, UniProt P30556); assay: agonist activity at AGTR1 – cell-based, uHTS hits, selectivity assay for APJ receptor agonist project, dose response (AID 488865); type: functional;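 note: beta-arrestin recruitment to AT1 measured by enzyme fragment complementation luminescence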
# [31] = target: T3, Heat shock factor protein 1; assay: enhancement of HSF1-driven luciferase signal – cell-based, NIH3T3, luminescence, dose retest, confirmation (AID 435004); type: functional;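 note: stress induced by proteasome inhibitor MG132 added 30 min after compound; luciferase reporter driven by HSF1 response element in NIH3T3 cells; actives raise luminescence as potentiators of the MG132 stress response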
# [32] = microbe, parasite or virus in culture; type: functional; settings: Mycobacterium tuberculosis
# [33] = target: Beta Lactamase (Pseudomonas aeruginosa, UniProt Q932Y6); assay: BLA reporter interference, concentration series – BLA reporter cells, FRET fluorescence, artefact control for NOD2-RIPK2 interaction inhibitor project, dose response (AID 651552); type: functional, cell-based
# [34] = target: T6, High affinity choline transporter 1 (Homo sapiens, UniProt Q9GZV3); assay: human choline transporter blockers, potency – cell-based, 5-point CRC, membrane potential dye, dose response (AID 504840); type: functional
# T6 sequence (Q9GZV3 whole entry): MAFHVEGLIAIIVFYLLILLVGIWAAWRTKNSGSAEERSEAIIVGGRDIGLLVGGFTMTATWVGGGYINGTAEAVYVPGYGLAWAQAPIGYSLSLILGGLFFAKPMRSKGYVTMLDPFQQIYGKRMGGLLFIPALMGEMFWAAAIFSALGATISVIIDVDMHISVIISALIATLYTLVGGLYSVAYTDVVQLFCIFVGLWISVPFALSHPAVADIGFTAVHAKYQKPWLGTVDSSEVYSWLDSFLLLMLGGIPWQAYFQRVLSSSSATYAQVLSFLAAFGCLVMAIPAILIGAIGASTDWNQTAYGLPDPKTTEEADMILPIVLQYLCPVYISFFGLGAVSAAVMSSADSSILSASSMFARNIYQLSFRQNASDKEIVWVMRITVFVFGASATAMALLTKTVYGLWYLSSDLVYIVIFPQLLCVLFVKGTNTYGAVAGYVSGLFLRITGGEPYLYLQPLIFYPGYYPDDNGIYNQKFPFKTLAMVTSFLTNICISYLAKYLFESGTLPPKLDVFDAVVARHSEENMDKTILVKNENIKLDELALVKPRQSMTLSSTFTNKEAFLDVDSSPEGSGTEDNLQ
# [35] = test system: INS1; assay: INS-1E survival protection against cytokine death – cell-based, luminescence, retest, dose response (AID 449756); type: functional; settings: Rattus norvegicus;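 note: cell death triggered by IL-1 beta plus TNF-alpha plus IFN-gamma mixture; protective hits raise ATP signal compared with cytokine alone wells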
# T1 sequence (Q01196 whole entry, the tested form may be a part): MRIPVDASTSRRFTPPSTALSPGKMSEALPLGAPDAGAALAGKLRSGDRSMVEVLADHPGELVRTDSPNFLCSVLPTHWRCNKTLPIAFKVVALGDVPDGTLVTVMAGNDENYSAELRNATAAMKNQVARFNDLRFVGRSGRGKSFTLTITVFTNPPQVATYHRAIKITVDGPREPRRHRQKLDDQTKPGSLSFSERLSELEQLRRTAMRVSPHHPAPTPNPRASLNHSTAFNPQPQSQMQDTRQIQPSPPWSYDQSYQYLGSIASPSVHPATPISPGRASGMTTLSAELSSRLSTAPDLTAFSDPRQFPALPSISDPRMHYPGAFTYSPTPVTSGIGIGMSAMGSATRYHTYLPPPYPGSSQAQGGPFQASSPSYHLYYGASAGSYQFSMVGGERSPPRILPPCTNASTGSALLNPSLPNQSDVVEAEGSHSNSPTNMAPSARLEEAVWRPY
# T1 sequence (Q13951 whole entry, the tested form may be a part): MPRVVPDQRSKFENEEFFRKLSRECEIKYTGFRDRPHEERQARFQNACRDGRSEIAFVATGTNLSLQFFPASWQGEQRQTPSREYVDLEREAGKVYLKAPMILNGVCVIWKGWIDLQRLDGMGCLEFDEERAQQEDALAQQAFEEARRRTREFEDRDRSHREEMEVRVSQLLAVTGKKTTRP
# Chain of Paired box protein Pax-8 (Q06710 whole entry): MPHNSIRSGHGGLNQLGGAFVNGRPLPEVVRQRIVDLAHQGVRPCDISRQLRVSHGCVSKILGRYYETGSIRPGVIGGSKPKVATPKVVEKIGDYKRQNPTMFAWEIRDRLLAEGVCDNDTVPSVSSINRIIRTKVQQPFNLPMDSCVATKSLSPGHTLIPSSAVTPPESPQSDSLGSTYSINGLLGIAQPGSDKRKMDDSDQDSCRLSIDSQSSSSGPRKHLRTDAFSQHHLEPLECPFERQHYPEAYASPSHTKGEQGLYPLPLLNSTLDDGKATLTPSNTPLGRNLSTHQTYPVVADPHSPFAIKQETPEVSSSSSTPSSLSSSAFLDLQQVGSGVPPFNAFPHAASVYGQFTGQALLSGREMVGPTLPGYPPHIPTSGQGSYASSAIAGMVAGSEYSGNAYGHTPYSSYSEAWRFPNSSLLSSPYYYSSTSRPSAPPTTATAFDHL
# Chain of Coagulation factor XII (P00748 20-372 limits assumed): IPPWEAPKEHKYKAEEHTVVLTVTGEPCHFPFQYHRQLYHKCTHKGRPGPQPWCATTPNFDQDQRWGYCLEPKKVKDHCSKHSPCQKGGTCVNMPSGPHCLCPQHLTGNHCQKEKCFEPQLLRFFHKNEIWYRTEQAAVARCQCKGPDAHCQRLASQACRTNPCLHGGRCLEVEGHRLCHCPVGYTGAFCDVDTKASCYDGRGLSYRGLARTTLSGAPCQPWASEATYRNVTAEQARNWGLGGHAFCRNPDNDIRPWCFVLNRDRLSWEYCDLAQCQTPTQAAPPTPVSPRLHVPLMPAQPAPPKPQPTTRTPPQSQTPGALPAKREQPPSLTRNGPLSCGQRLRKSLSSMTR
# Chain of Coagulation factor XII (P00748 373-615 limits assumed): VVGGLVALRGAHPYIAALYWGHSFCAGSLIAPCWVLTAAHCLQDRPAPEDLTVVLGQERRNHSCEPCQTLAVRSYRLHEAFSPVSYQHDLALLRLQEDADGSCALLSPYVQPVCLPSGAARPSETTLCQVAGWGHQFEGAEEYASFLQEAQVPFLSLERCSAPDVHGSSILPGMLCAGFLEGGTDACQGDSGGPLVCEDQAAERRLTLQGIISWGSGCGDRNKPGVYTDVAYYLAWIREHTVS
# Chain of Induced myeloid leukemia cell differentiation protein Mcl-1 (Q07820 whole entry, the tested form may be a part): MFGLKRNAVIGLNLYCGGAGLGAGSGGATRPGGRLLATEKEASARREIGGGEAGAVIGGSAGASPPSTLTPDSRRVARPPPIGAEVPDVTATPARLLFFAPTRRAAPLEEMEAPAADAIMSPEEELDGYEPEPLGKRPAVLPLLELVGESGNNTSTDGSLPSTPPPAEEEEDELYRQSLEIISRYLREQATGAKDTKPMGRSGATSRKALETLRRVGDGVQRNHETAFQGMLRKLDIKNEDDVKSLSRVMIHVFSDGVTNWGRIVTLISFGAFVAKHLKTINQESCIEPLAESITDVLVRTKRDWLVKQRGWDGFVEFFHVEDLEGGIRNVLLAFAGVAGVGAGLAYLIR
# Chain of Type-1 angiotensin II receptor (P30556 whole entry, the tested form may be a part): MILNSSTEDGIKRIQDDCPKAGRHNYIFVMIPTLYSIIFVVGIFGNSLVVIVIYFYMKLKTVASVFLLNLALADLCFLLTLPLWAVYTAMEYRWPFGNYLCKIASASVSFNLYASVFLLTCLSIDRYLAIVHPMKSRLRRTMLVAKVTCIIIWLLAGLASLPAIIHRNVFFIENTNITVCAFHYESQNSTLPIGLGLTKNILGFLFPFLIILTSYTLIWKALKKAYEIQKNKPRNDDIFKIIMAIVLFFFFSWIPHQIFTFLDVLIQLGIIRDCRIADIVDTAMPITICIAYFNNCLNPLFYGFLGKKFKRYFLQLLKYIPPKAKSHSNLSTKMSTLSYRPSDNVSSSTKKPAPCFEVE
# Chain of Beta Lactamase (Q932Y6 whole entry): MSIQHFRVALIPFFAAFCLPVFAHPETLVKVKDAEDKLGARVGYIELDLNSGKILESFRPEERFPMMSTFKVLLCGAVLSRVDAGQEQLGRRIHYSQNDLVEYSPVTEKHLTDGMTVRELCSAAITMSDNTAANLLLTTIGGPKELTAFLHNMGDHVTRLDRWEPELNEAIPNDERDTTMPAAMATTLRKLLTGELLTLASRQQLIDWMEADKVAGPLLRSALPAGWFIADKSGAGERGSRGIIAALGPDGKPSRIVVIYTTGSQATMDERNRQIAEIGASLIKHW
# Chain of Ion channel NompC (Q7T1G6 whole entry, the tested form may be a part): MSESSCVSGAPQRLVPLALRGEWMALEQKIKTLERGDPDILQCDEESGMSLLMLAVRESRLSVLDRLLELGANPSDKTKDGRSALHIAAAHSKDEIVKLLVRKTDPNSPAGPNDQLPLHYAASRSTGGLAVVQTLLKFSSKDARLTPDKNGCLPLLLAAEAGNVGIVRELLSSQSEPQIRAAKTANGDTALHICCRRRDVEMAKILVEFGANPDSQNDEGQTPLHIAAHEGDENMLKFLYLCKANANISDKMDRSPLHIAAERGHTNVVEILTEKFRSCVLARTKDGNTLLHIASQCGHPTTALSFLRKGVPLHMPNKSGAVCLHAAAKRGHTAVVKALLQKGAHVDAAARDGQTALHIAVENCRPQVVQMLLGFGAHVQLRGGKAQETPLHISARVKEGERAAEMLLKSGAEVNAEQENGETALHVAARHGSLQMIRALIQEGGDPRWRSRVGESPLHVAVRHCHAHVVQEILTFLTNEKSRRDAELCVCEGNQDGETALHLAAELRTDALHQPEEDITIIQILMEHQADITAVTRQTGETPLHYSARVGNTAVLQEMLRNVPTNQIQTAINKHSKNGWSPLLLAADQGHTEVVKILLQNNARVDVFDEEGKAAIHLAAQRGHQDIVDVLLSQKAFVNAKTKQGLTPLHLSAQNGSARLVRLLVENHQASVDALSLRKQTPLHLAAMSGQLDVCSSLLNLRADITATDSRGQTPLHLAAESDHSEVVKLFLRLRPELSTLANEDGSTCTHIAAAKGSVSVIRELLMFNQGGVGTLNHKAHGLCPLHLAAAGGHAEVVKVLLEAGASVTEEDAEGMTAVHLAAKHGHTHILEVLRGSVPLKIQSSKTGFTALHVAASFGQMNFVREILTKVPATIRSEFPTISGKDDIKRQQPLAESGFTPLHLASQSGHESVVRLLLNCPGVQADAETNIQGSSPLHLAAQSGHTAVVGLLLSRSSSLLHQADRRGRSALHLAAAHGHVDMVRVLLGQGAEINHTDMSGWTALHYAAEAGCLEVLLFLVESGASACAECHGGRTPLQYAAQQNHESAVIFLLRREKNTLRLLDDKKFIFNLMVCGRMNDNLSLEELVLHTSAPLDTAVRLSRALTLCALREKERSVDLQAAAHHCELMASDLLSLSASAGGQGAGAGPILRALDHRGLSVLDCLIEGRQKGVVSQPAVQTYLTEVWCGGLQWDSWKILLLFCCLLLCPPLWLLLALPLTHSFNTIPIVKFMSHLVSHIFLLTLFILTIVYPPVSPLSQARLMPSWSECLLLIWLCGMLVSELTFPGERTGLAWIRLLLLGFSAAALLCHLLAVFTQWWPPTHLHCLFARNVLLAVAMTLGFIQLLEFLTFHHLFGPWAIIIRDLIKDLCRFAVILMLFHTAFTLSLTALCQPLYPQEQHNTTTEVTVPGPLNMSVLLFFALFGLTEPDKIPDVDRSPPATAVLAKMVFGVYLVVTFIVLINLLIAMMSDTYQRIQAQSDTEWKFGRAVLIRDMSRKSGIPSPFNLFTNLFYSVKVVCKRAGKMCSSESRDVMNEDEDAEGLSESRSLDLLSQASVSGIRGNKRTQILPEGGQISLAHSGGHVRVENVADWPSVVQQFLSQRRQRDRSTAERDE
# Chain of DNA damage-inducible transcript 3 protein (P35639 whole entry, the tested form may be a part): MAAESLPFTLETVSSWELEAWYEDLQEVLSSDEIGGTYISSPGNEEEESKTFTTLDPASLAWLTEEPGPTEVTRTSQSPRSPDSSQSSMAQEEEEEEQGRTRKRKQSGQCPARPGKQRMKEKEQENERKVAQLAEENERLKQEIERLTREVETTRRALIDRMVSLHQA
structure (smiles),measurement,setting,value
O=C(c1ccc(Cl)cc1)N1CCC(O)(CSc2ccc(Cl)cc2Cl)CC1,Absolute IC50 (CHOP),[1],10 µM
Nc1c(C(=O)NCCN2CCOCC2)c2nc3ccccc3nc2n1Cc1ccco1,IC50,[2],1.19 µM (active)
same,IC50,[3],6.49 µM (not active)
same,IC50,[4],> 100 µM (inactive)
CCCCCCCCCCCC(=O)N1CC(=O)NC(=O)C1,IC50,[5],> 50 µM (inactive)
CCN(CC)CCCN(C(=O)c1ccco1)c1nc(-c2ccc(C)cc2)cs1,IC50,[6],44.2 µM (active)
same,CC50,[7],38.2 µM (active)
same,CC50,[8],> 20 µM (active)
same,AC50,[9],20.7 µM (active)
same,CC50,[10],> 20 µM (active)
same,EC50,[11],> 195 µM (not active)
Cc1cc(C)cc(Nc2nc3ccc(C)cc3n3cnnc23)c1,EC50,[12],16.6 µM (inconclusive)
same,EC50,[13],16.6 µM (active)
same,EC50,[14],2.82 µM (active)
same,EC50,[15],> 120 µM (not active)
same,EC50,[16],> 195 µM (inactive)
same,EC50,[17],20.5 µM (active)
same,EC50,[18],20.5 µM (inconclusive)
same,EC50,[19],> 195 µM (inconclusive)
same,EC50,[20],> 120 µM (not active)
CCOc1ccc2nc(N3C(=O)C(O)=C(C(=O)c4ccco4)C3c3ccco3)sc2c1 (stereo not given),IC50,[21],8.2 µM (inactive)
same,IC50,[22],3 µM (active)
same,EC50,[23],1.2 µM (active)
O=C(COc1ccc(F)c(Cl)c1)N[C@@H]1CCCN(Cc2ccccc2)C1,EC50,[24],10 µM (active)
CC1=CC(=O)C(C(C)C)=C/C1=N/OS(=O)(=O)c1ccccc1,AC50,[25],3.61 µM (active)
same,EC50,[26],> 29.9 µM (not active)
same,AC50,[27],6.97 µM (active)
same,EC50,[28],> 29.9 µM (not active)
same,IC50,[29],7.38 µM (active)
same,EC50,[30],> 100 µM (inactive)
same,EC50,[31],4.19 µM (active)
same,CC50,[32],9.69 µM (active)
same,IC50,[33],49.8 µM (inactive)
same,IC50,[34],12 µM (active)
same,AC50,[35],1.06 µM (active)

# From ChEMBL document CHEMBL1201862, “PubChem BioAssay data set” (2004)
